Experimental data reported in article PMC7959488, “Identify potent SARS-CoV-2 main protease inhibitors via accelerated free energy perturbation-based virtual screening of existing drugs” (Proceedings of the National Academy of Sciences of the …, 2020).
Counter-ions that a name gives are not always drawn. Like-named read-outs stand apart in the source and are kept apart here.

Assays:
[1] = test system: HIV-1 protease; settings: experimental binding free energy; ligand named by PDB code of its complex; cited from earlier work
[2] = test system: human factor Xa; settings: experimental binding free energy; ligand named by PDB code of its complex; cited from earlier work
[3] = test system: BRD4; set-up: method as in Aldeghi et al. (18); settings: experimental binding free energy; ligand named by PDB code of its complex; ref Aldeghi et al. (18); cited from earlier work
[4] = target: T1, SARS-CoV-2 M^pro (Severe acute respiratory syndrome coronavirus 2, UniProt P0DTD1); settings: ref [6], [36]; read-out: IC50 (µM), values in the brackets obtained from other published works (converted); cited from earlier work
[5] = target: T1, SARS-CoV-2 M^pro
[6] = target: T1, SARS-CoV-2 M^pro; settings: for UEMM-GBSA: unsigned error |ΔGMM-GBSA − ΔGexp|; for UEMM-PBSA: unsigned error |ΔGMM-PBSA − ΔGexp|
[7] = target: T1, SARS-CoV-2 M^pro; experiment: biochemical
[8] = test system: norovirus; settings: cited from earlier work
[9] = test system: SARS-CoV-2; settings: cited from earlier work; for activity in vitro against SARS-CoV-2: molecular targets not reported
[10] = test system: vesicular stomatitis virus (VSV); type: cell-based
[11] = test system: human ether-a-go-go−related gene (hERG) encoded potassium channel Kv11.1; settings: cited from earlier work
[12] = test system: SARS-CoV; settings: at 1.0 μM; cited from earlier work
[13] = test system: microsomal prostaglandin E2 synthase 1 (mPGES-1); settings: cited from earlier work
[14] = calculated from corresponding Ki values
[15] = converted from IC50 based on the assumption of the competitive inhibition without covalent binding, read-out: Ki
[16] = substrate concentration 20 µM, 500 nM enzyme, ∼50 values estimated from single-concentration assay, read-out: IC50

O=S1(=O)N(Cc2ccccc2)[C@H](COc2ccccc2)[C@H](O)[C@@H](O)[C@@H](COc2ccccc2)N1Cc1ccccc1 [1AJV]
∆Gexp [1]: -43.9 kJ/mol

O=C(NCc1ccccc1)[C@H](OCc1ccccc1)[C@H](O)[C@@H](O)[C@@H](OCc1ccccc1)C(=O)N[C@H]1c2ccccc2C[C@H]1O [1D4H]
∆Gexp [1]: -56.9 kJ/mol

O=C(N[C@H]1c2ccccc2C[C@H]1O)[C@@H](C[C@@H](O)[C@@H](OCc1ccccc1)C(=O)N[C@H]1c2ccccc2C[C@H]1O)OCc1ccccc1 [1D4I]
∆Gexp [1]: -50.6 kJ/mol

O=C(N[C@H]1c2ccccc2C[C@H]1O)[C@H](OCc1ccccc1)[C@H](O)[C@@H](O)[C@@H](OCc1ccccc1)C(=O)N[C@H]1c2ccccc2C[C@H]1O [1EBY]
∆Gexp [1]: -55.2 kJ/mol

CNC(=O)[C@@H](NC(=O)[C@H](OCc1ccccc1)[C@H](O)[C@@H](O)[C@@H](OCc1ccccc1)C(=O)N[C@H]1c2ccccc2C[C@H]1O)C(C)C [1EBZ]
∆Gexp [1]: -53.6 kJ/mol

CN1CCN=C1c1cccc(Oc2nc(Oc3cc(C(=N)N)ccc3O)c(F)c(N(C)CC(=O)O)c2F)c1 [1FJS]
∆Gexp [2]: -56.9 kJ/mol

COc1cc(Cl)cc(C(=O)Nc2ccc(Cl)cn2)c1NC(=O)c1scc(CN(C)C2=NCCO2)c1Cl [1MQ6]
∆Gexp [2]: -63.6 kJ/mol

CC(C(=O)N1CCOCC1)N1CCC(NS(=O)(=O)c2cc3ccc(Cl)cc3s2)C1=O (centres unmarked) [2J34]
∆Gexp [2]: -44.8 kJ/mol

COc1ccc(-n2nc(C(N)=O)c3c2C(=O)N(c2ccc(N4CCCCC4=O)cc2)CC3)cc1 [2P16]
∆Gexp [2]: -57.7 kJ/mol

CC(=O)N[C@@H](C)C(=O)N[C@@H](Cc1ccccc1)[C@H](O)CN(Cc1cccs1)S(=O)(=O)c1cc(F)c(F)cc1F [2QHY]
∆Gexp [1]: -42.7 kJ/mol

O=C(Cn1cnc(NC(=O)c2ccc(Cl)s2)n1)Nc1ccc(-n2ccccc2=O)cc1F [2VVV]
∆Gexp [2]: -46.9 kJ/mol

C=C(C)CNC(=O)C1N(C(=O)C(O)C(Cc2ccccc2)NC(=O)COc2c(C)cc(N)cc2C)CSC1(C)C (centres unmarked) [3A2O]
∆Gexp [1]: -51.9 kJ/mol

Cc1sc2c(c1C)C(c1ccc(Cl)cc1)=N[C@@H](CC(=O)OC(C)(C)C)c1nnc(C)n1-2 [3MXF]
∆Gexp [3]: -40.2 kJ/mol

CCOc1cc(-c2c(C)noc2C)cc(C(C)O)c1 (centres unmarked) [3SVG]
∆Gexp [3]: -30.5 kJ/mol

Cc1nnc2n1-c1ccc(Cl)cc1C(c1ccccc1)=NC2 [3U5J]
∆Gexp [3]: -31 kJ/mol

Cc1nnc2n1-c1ccc(Cl)cc1C(c1ccccc1)=NN2C [3U5L]
∆Gexp [3]: -34.3 kJ/mol

CN1Cc2cc(Br)ccc2NC1=O [4HBV]
∆Gexp [3]: -26.4 kJ/mol

Cc1noc(C)c1-c1cc(O)cc(C(O)c2ccccc2)c1 (centres unmarked) [4J0R]
∆Gexp [3]: -36.8 kJ/mol

COc1cc(OC)c2c(=O)[nH]c(-c3cc(C)c(O)c(C)c3)nc2c1 [4MR3]
∆Gexp [3]: -37.7 kJ/mol

COc1cc(OC)c2c(=O)[nH]c(-c3cc(C)c(OCCO)c(C)c3)nc2c1 [4MR4]
∆Gexp [3]: -32.6 kJ/mol

CC(C)CN(CC(O)C(Cc1ccccc1)NC(=O)OC1COC2OCC(F)(F)C12)S(=O)(=O)c1ccc(N)cc1 (centres unmarked) [4U8W]
∆Gexp [1]: -64 kJ/mol

Cc1coc(CN(C)C(=O)c2cccc(C(=O)N[C@@H](Cc3ccccc3)[C@H](O)CN(CC(C)C)S(=O)(=O)c3ccc(CO)cc3)c2)n1 [5UPZ]
∆Gexp [1]: -52.3 kJ/mol

COC(=O)N[C@H](C(=O)N[C@@H](Cc1ccccc1)[C@@H](O)CN(Cc1ccc(-c2ccccn2)cc1)NC(=O)[C@@H](NC(=O)OC)C(C)(C)C)C(C)(C)C [Atazanavir, atazanavir]
IC50 [4]: 10 µM | UEFEP-ABFE [5]: 2.5 kJ/mol | UEMM-GBSA [6]: 128 kJ/mol | UEMM-PBSA [6]: 102 kJ/mol | ΔGexp [7, 14]: -36 kJ/mol | Ki [7, 15]: 0.49 ± 0.02 µM | IC50 [7, 16]: 7.5 ± 0.3 µM

CCOc1nc2cccc(C(=O)OC(C)OC(=O)OC3CCCCC3)c2n1Cc1ccc(-c2ccccc2-c2nnn[nH]2)cc1 (centres unmarked) [Candesartan cilexetil, candesartan cilexetil]
UEFEP-ABFE [5]: 2.5 kJ/mol | UEMM-GBSA [6]: 122 kJ/mol | UEMM-PBSA [6]: 113 kJ/mol | ΔGexp [7, 14]: -38.5 kJ/mol | Ki [7, 15]: 0.18 ± 0.02 µM | IC50 [7, 16]: 2.8 ± 0.3 µM

CCOc1nc2cccc(C(=O)O)c2n1Cc1ccc(-c2ccccc2-c2nnn[nH]2)cc1 [Candesartan, candesartan]
Ki [7]: 0.62 µM

CCN(CC)CCCC(C)Nc1ccnc2cc(Cl)ccc12 (centres unmarked) [Chloroquine, chloroquine]
sensitivity of norovirus to treatment [8]: hypersensitive | activity in vitro against SARS-CoV-2 [9]: active in vitro | UEFEP-ABFE [5]: 6.28 kJ/mol | UEMM-GBSA [6]: 103 kJ/mol | UEMM-PBSA [6]: 67.4 kJ/mol | inhibition of VSV [10]: no significant inhibition | IC50 [11]: 2.5 µM | SARS-CoV replication reduced to [12]: 53%

CN/C(=N/CCSCc1nc[nH]c1C)NC#N [Cimetidine]
UEFEP-ABFE [5]: 5.86 kJ/mol | UEMM-GBSA [6]: 84.9 kJ/mol | UEMM-PBSA [6]: 78.2 kJ/mol | IC50 [7]: ~50 µM | Ki [7]: ~3.27 µM | ΔGexp [7]: -31.4 kJ/mol

OCCN(CCO)c1nc(N2CCCCC2)c2nc(N(CCO)CCO)nc(N3CCCCC3)c2n1 [DIP, dipyridamole]
EC50 ([9]; raw antiviral activity data reported separately, read-out: EC50, suppression of SARS-CoV-2 replication): 0.1 µM | inhibition of mPGES-1 [13]: weak inhibitor

CCN(CC)C(=S)SSC(=S)N(CC)CC [Disulfiram, disulfiram]
UEFEP-ABFE [5]: 9.2 kJ/mol | UEFEP-ABFE ([5]; listed as disulfiram): about 2.2 kcal/mol | ΔGexp [7, 14]: -36.8 kJ/mol

CCN(CCO)CCCC(C)Nc1ccnc2cc(Cl)ccc12 (centres unmarked) [Hydroxychloroquine, hydroxychloroquine]
activity in vitro against SARS-CoV-2 [9]: active in vitro | UEFEP-ABFE [5]: 4.6 kJ/mol | inhibition of VSV [10]: no significant inhibition | IC50 ([11]; read-out: IC50, hERG Kv11.1 block): 10.7 µM

CC(C)(C)NC(=O)[C@@H]1CN(Cc2cccnc2)CCN1C[C@@H](O)C[C@@H](Cc1ccccc1)C(=O)N[C@H]1c2ccccc2C[C@H]1O [Indinavir]
activity in vitro against SARS-CoV-2 [9]: active in vitro

CC(C)Nc1nc2cc(Cl)c(Cl)cc2n1[C@H]1O[C@@H](CO)[C@H](O)[C@@H]1O [Maribavir]
UEFEP-ABFE ([5]; unsigned error |ΔGFEP-ABFE − ΔGexp|): 9.2 kJ/mol | UEFEP-ABFE ([5]; unsigned error |ΔGFEP-ABFE − ΔGexp|, listed as maribavir): about 2.2 kcal/mol | UEMM-GBSA [6]: 108 kJ/mol | UEMM-PBSA [6]: 81.6 kJ/mol

COc1ccc2[nH]c([S+]([O-])Cc3ncc(C)c(OC)c3C)nc2c1 (centres unmarked) [Omeprazole]
UEFEP-ABFE [5]: 6.69 kJ/mol | UEMM-GBSA [6]: 68.6 kJ/mol | UEMM-PBSA [6]: 59.8 kJ/mol | IC50 [7]: 21 ± 1 µM | Ki [7]: 1.37 ± 0.06 µM | ΔGexp [7, 14]: -33.5 kJ/mol

CN(C)[C@@H]1C(O)=C(C(N)=O)C(=O)[C@@]2(O)C(O)=C3C(=O)c4c(O)cccc4[C@@](C)(O)[C@H]3[C@H](O)[C@@H]12 [Oxytetracycline]
UEFEP-ABFE [5]: 2.5 kJ/mol | UEMM-GBSA [6]: 26.8 kJ/mol | UEMM-PBSA [6]: 7.53 kJ/mol | ΔGexp [7, 14]: -34.3 kJ/mol | Ki [7, 15]: 0.99 ± 0.06 µM | IC50 [7, 16]: 15.2 ± 0.9 µM

CC(=O)OCC(=O)NCCCOc1cccc(CN2CCCCC2)c1 [Roxatidine acetate hydrochloride]
UEFEP-ABFE [5]: 3.3 kJ/mol | UEMM-GBSA [6]: 94.1 kJ/mol | UEMM-PBSA [6]: 88.7 kJ/mol | ΔGexp [7, 14]: -33.5 kJ/mol | Ki [7, 15]: 1.33 ± 0.02 µM | IC50 [7, 16]: 20.3 ± 0.4 µM

CC(=O)NS(=O)(=O)c1ccc(N)cc1 [Sulfacetamide]
UEFEP-ABFE [5]: 2.1 kJ/mol | UEMM-GBSA [6]: 26.8 kJ/mol | UEMM-PBSA [6]: 30.5 kJ/mol | IC50 [7]: ~50 µM | Ki [7]: ~3.27 µM | ΔGexp [7, 14]: -31.4 kJ/mol

CC(C)[C@H](N)C(=O)OCCOCn1cnc2c(=O)[nH]c(N)nc21 [Valacyclovir hydrochloride]
UEFEP-ABFE [5]: 7.95 kJ/mol | UEMM-GBSA [6]: 42.7 kJ/mol | UEMM-PBSA [6]: 53.1 kJ/mol | ΔGexp [7, 14]: -33.9 kJ/mol | Ki [7, 15]: 1.09 ± 0.06 µM | IC50 [7, 16]: 16.7 ± 0.9 µM

CC(C)[C@H](N)C(=O)OCC(CO)OCn1cnc2c(=O)nc(N)[nH]c21 (some centres unmarked) [Valganciclovir Hydrochloride]
Ki [7, 15]: 1.09 ± 0.06 µM
